The values below are quoted from earlier work in article PMC6073568, “Efficient Lead Finding, Activity Enhancement and Preliminary Selectivity Control of Nuclear Receptor Ligands Bearing a Phenanthridinone Skeleton” (International Journal of Molecular Sciences, 2018).

This data set addresses T1, LXRα (Homo sapiens, UniProt Q13133).
T1 construct: CMX-GAL4N-hLXRα-LBD; expressed in transfected cells; host or cells: HEK293
T1 sequence (Q13133 209-447 limits assumed): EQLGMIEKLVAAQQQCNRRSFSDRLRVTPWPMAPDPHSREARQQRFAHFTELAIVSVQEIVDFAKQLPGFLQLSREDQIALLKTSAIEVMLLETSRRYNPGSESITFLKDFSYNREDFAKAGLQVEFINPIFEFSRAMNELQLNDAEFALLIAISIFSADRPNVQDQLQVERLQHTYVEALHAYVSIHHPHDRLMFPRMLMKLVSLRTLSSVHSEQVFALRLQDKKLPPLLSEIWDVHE
The note with it: read-out: LXRα antagonistic activity (IC50); cited from earlier work.

On to `O=c1[nH]c2ccc(C(O)(C(F)(F)F)C(F)(F)F)cc2c2ccccc12` [Compound 1], for which the concentration for half-maximal inhibition (IC50) (usually the concentration that gives 50% inhibition) is 5 µM.
